Data taken from PubChem BioAssay AID1259407 (Chemical Carcinogenesis Research Information System (CCRIS), 2018).
Calls of active or inactive are those of the source. How the calls were made is not given here.

System: CCRIS mutagenicity, Ames/micronucleus/aberration tests
Experiment: CCRIS mutagenicity studies
[1] = Test System: AMES SALMONELLA TYPHIMURIUM, Strain/Indicator: TA100, Metabolic Activation: NONE, Method: PREINCUBATION
[2] = Test System: AMES SALMONELLA TYPHIMURIUM, Strain/Indicator: TA98, Metabolic Activation: RAT, LIVER, S-9, AROCLOR 1254, Method: STANDARD PLATE
[3] = Test System: AMES SALMONELLA TYPHIMURIUM, Strain/Indicator: TA100, Metabolic Activation: RAT, LIVER, S-9, AROCLOR 1254, Method: STANDARD PLATE
[4] = Test System: AMES SALMONELLA TYPHIMURIUM, Strain/Indicator: TA97A, Metabolic Activation: NONE, Method: STANDARD PLATE
[5] = Test System: AMES SALMONELLA TYPHIMURIUM, Strain/Indicator: TA98, Metabolic Activation: NONE, Method: STANDARD PLATE
[6] = Test System: AMES SALMONELLA TYPHIMURIUM, Strain/Indicator: TA100, Metabolic Activation: NONE, Method: STANDARD PLATE
[7] = Test System: AMES SALMONELLA TYPHIMURIUM, Strain/Indicator: TA102, Metabolic Activation: NONE, Method: STANDARD PLATE
[8] = Test System: AMES SALMONELLA TYPHIMURIUM, Strain/Indicator: TA1535, Metabolic Activation: NONE, Method: STANDARD PLATE
[9] = Test System: AMES SALMONELLA TYPHIMURIUM, Strain/Indicator: TA1537, Metabolic Activation: NONE, Method: STANDARD PLATE
[10] = Test System: AMES SALMONELLA TYPHIMURIUM, Strain/Indicator: TA1537, Metabolic Activation: RAT, LIVER, S-9, AROCLOR 1254, Method: STANDARD PLATE

For O=c1c2[nH]c3ccccc3c2nnn1/N=C/c1ccc(O)cc1, the mutagenic call (Test System: AMES SALMONELLA TYPHIMURIUM, Strain/Indicator: TA97, Metabolic Activation: NONE, Method: PREINCUBATION) was “active; positive”, the mutagenic call (Test System: AMES SALMONELLA TYPHIMURIUM, Strain/Indicator: TA97, Metabolic Activation: RAT, LIVER, S-9, AROCLOR 1254 (10%), Method: PREINCUBATION) was “active; positive” and the mutagenic call (Test System: AMES SALMONELLA TYPHIMURIUM, Strain/Indicator: TA98, Metabolic Activation: NONE, Method: PREINCUBATION) was “active; positive”. For the same molecule, the mutagenic call (Test System: AMES SALMONELLA TYPHIMURIUM, Strain/Indicator: TA98, Metabolic Activation: RAT, LIVER, S-9, AROCLOR 1254 (10%), Method: PREINCUBATION) was “active; positive”, the mutagenic call [1] was “active; positive” and the mutagenic call (Test System: AMES SALMONELLA TYPHIMURIUM, Strain/Indicator: TA100, Metabolic Activation: RAT, LIVER, S-9, AROCLOR 1254 (10%), Method: PREINCUBATION) was “active; positive”. For the same molecule, the mutagenic call (Test System: AMES SALMONELLA TYPHIMURIUM, Strain/Indicator: TA102, Metabolic Activation: NONE, Method: PREINCUBATION) was “active; positive” and the mutagenic call (Test System: AMES SALMONELLA TYPHIMURIUM, Strain/Indicator: TA102, Metabolic Activation: RAT, LIVER, S-9, AROCLOR 1254 (10%), Method: PREINCUBATION) was “active; positive”.

In the case of Cc1cc2c(cc1C)C(C)c1ccccc1-2 (stereo not drawn), the mutagenic call [2] is reported as “active; positive” and the mutagenic call [3] is reported as “active; positive”.

For COC1=CC(=O)c2c(nc(C)c3c2[nH]c2ccncc23)C1=O, the mutagenic call [4] was “active; positive”, the mutagenic call (Test System: AMES SALMONELLA TYPHIMURIUM, Strain/Indicator: TA97A, Metabolic Activation: RAT LIVER S-9, AROCLOR 1254, Method: STANDARD PLATE) was “inactive; negative” and the mutagenic call [5] was “active; positive”. For the same molecule, the mutagenic call (Test System: AMES SALMONELLA TYPHIMURIUM, Strain/Indicator: TA98, Metabolic Activation: RAT LIVER S-9, AROCLOR 1254, Method: STANDARD PLATE) was “active; positive”, the mutagenic call [6] was “active; positive” and the mutagenic call (Test System: AMES SALMONELLA TYPHIMURIUM, Strain/Indicator: TA100, Metabolic Activation: RAT LIVER S-9, AROCLOR 1254, Method: STANDARD PLATE) was “active; positive”. The mutagenic call [7] was “active; positive” and the mutagenic call (Test System: AMES SALMONELLA TYPHIMURIUM, Strain/Indicator: TA102, Metabolic Activation: RAT LIVER S-9, AROCLOR 1254, Method: STANDARD PLATE) was “active; positive”.

For COc1cc([C@H]2OC[C@H]3[C@@H]2CO[C@@H]3c2cc(OC)c(OC)c(OC)c2)cc(OC)c1OC, the mutagenic call [4] was “inactive; negative”, the mutagenic call (Test System: AMES SALMONELLA TYPHIMURIUM, Strain/Indicator: TA97A, Metabolic Activation: RAT LIVER S-9 (AROCLOR), Method: STANDARD PLATE) was “inactive; negative” and the mutagenic call [5] was “inactive; negative”. For the same molecule, the mutagenic call (Test System: AMES SALMONELLA TYPHIMURIUM, Strain/Indicator: TA98, Metabolic Activation: RAT LIVER S-9 (AROCLOR), Method: STANDARD PLATE) was “inactive; negative”, the mutagenic call [6] was “inactive; negative” and the mutagenic call (Test System: AMES SALMONELLA TYPHIMURIUM, Strain/Indicator: TA100, Metabolic Activation: RAT LIVER S-9 (AROCLOR), Method: STANDARD PLATE) was “inactive; negative”. The mutagenic call [7] was “inactive; negative”, the mutagenic call (Test System: AMES SALMONELLA TYPHIMURIUM, Strain/Indicator: TA102, Metabolic Activation: RAT LIVER S-9 (AROCLOR), Method: STANDARD PLATE) was “inactive; negative” and the mutagenic call [8] was “inactive; negative”. The mutagenic call (Test System: AMES SALMONELLA TYPHIMURIUM, Strain/Indicator: TA1535, Metabolic Activation: RAT LIVER S-9 (AROCLOR), Method: STANDARD PLATE) was “inactive; negative”.

For c1ccc(Cc2ccccc2OCC2CO2)cc1 (stereo not drawn), the mutagenic call [6] was “active; positive” and the mutagenic call [8] was “active; positive”.

CC1(c2ccc(Cl)cc2)CO1 (stereo not drawn) was tested, and the mutagenic call [1] was “active; positive”.

CCN(CC)c1cc(NC(C)=O)c(N=Nc2ccc([N+](=O)[O-])cc2)cc1OC was tested, and the mutagenic call [5] was “active; positive”, the mutagenic call [2] was “active; positive” and the mutagenic call [6] was “inactive; negative”. The mutagenic call [3] was “active; positive”, the mutagenic call [8] was “inactive; negative” and the mutagenic call (Test System: AMES SALMONELLA TYPHIMURIUM, Strain/Indicator: TA1535, Metabolic Activation: RAT, LIVER, S-9, AROCLOR 1254, Method: STANDARD PLATE) was “active; positive”. The mutagenic call [9] was “inactive; negative”, the mutagenic call [10] was “active; positive” and the mutagenic call (Test System: MOUSE LYMPHOMA, Strain/Indicator: L5178Y (TK+/TK-), Metabolic Activation: NONE, Method: SUSPENSION/PLATE) was “inactive; negative”. The mutagenic call (Test System: MOUSE LYMPHOMA, Strain/Indicator: L5178Y (TK+/TK-), Metabolic Activation: RAT, LIVER, S-9, AROCLOR 1254, Method: SUSPENSION/PLATE) was “inactive; negative” and the mutagenic call (Test System: UDS RAT HEPATOCYTES, Strain/Indicator: THY INCORP, Metabolic Activation: NONE, Method: AUTORADIOGRAPHY) was “inactive; negative”.

With CNC(=O)c1cccc2c(Nc3ccc(NS(C)(=O)=O)cc3OC)c3cccc(C)c3nc12 the mutagenic call [5] was “inactive; negative”, the mutagenic call [2] was “inactive; negative” and the mutagenic call [6] was “inactive; negative”. The mutagenic call [3] was “inactive; negative”, the mutagenic call [7] was “active; positive” and the mutagenic call (Test System: AMES SALMONELLA TYPHIMURIUM, Strain/Indicator: TA102, Metabolic Activation: RAT, LIVER, S-9, AROCLOR 1254, Method: STANDARD PLATE) was “active; positive”. For the same molecule, the mutagenic call [9] was “active; positive”, the mutagenic call [10] was “active; positive” and the mutagenic call (Test System: CHINESE HAMSTER V-79, Strain/Indicator: V-79/6-THIOGUANINE, Metabolic Activation: NONE, Method: STANDARD PLATE) was “active; positive”. For the same molecule, the mutagenic call (Test System: CHINESE HAMSTER V-79, Strain/Indicator: V-79/OUABAIN, Metabolic Activation: NONE, Method: STANDARD PLATE) was “inactive; negative”.

For CN(C)CCNC(=O)c1cccc2c1ncc1ccccc12, the mutagenic call [9] was “active; positive”.

Nc1cc2ccccc2cc1N was tested, and the mutagenic call (Test System: AMES SALMONELLA TYPHIMURIUM, Strain/Indicator: TA98, Metabolic Activation: RAT LIVER CYTOSOL, AROCLOR 1254, Method: STANDARD PLATE) was “active; positive” and the mutagenic call (Test System: AMES SALMONELLA TYPHIMURIUM, Strain/Indicator: TA98, Metabolic Activation: RAT LIVER MICROSOMES, AROCLOR 1254, Method: STANDARD PLATE) was “active; positive”.

In the case of NCCS, the mutagenic call (End Point: IN VIVO MICRONUCLEUS, Test System: BONE MARROW POLYCHROMATIC ERYTHROCYTES, Species: MOUSE, Strain/Sex: SWISS/FEMALE, Route: IP) is reported as “inactive; negative”, the mutagenic call [1] is reported as “inactive; negative” and the mutagenic call (Test System: Ames Salmonella typhimurium, Strain/Indicator: TA98, Metabolic Activation: None, Method: Preincubation) is reported as “inactive; negative”. The mutagenic call (Test System: Ames Salmonella typhimurium, Strain/Indicator: TA98, Metabolic Activation: Rat, Liver, S9, Sodium phenobarbital and 5,6-benzoflavone (10%), Method: Preincubation) was “inactive; negative”, the mutagenic call (Test System: Ames Salmonella typhimurium, Strain/Indicator: TA100, Metabolic Activation: None, Method: Preincubation) was “inactive; negative” and the mutagenic call (Test System: Ames Salmonella typhimurium, Strain/Indicator: TA100, Metabolic Activation: Rat, Liver, S9, Sodium phenobarbital and 5,6-benzoflavone (10%), Method: Preincubation) was “inactive; negative”. The mutagenic call (Test System: Ames Salmonella typhimurium, Strain/Indicator: TA1535, Metabolic Activation: None, Method: Preincubation) was “inactive; negative”, the mutagenic call (Test System: Ames Salmonella typhimurium, Strain/Indicator: TA1535, Metabolic Activation: Rat, Liver, S9, Sodium phenobarbital and 5,6-benzoflavone (10%), Method: Preincubation) was “inactive; negative” and the mutagenic call (Test System: Ames Salmonella typhimurium, Strain/Indicator: TA1537, Metabolic Activation: None, Method: Preincubation) was “inactive; negative”. The mutagenic call (Test System: Ames Salmonella typhimurium, Strain/Indicator: TA1537, Metabolic Activation: Rat, Liver, S9, Sodium phenobarbital and 5,6-benzoflavone (10%), Method: Preincubation) was “inactive; negative” and the mutagenic call (Test System: E. coli, Strain/Indicator: WP2uvrA/pKM101, Metabolic Activation: Rat, Liver, S9, Sodium phenobarbital and 5,6-benzoflavone (10%), Method: Preincubation) was “inactive; negative”.

For CC(=O)ON(OCc1ccc(Oc2ccccc2)cc1)C(=O)c1ccccc1, the mutagenic call [6] was “active; positive” and the mutagenic call (Test System: AMES SALMONELLA TYPHIMURIUM, Strain/Indicator: TA100, Metabolic Activation: RAT, S-9, AROCLOR, Method: STANDARD PLATE) was “active; positive”.
